Test results taken from patent publication US8796288B2, “Anhydrous crystalline forms of N-[1-(2-ethoxyethyl)-5-(N-ethyl-N-methylamino)-7-(4-methylpyridin-2-yl-amino)-1H-pyrazolo[4,3-d]pyrimidine-3-carbonyl]methanesulfonamide” (Pfizer Inc., priority 2005, dated 2014).
“Also recorded” adds a separate entry of the source. Blank lines part the entries; values can stand above or below the compound they belong to.

Assays:
[1] = Stability of Form A and Form B (slurry conversion in methanol with PXRD, DSC comparison); assay type: physicochemical
Method: Form A, Form B and Form C were each analyzed using differential scanning calorimetry (DSC). A TA Instruments Q1000 differential scanning calorimeter was used to perform each analysis. Each sample was heated from 25 to 300° C. at 20° C. per minute in an aluminium pan with the lid laid on top, with a nitrogen purge gas. The temperature of the melting endothermic peak was reported as the melting point.
Approximately 25 mg of Form A (see Example 3) was slurried at room temperature with 1 ml of methanol. […] A small sample was removed from the slurry.
The thermodynamically stabilities of Form A and Form B were compared as described below. First, approximately 25 mg of Form A was slurried in approximately 1 ml of methanol. […] A small sample was removed from the slurry.

[2] = Stability of Form B and Form C (bridging slurry studies, PXRD analysis); assay type: physicochemical
Method: Bridging studies were performed in the following solvent systems to determine the relative thermodynamic stabilities of Form B and Form C: (1) THF/H2O (50:50 volume/volume), (2) methyl ethyl ketone (“MEK”), (3) methanol, and (4) methanol/dichloromethane (DCM) (50:50 volume/volume). The MEK study was performed at room temperature while the studies with the other three solvent systems were performed at both 40° C. and 60° C. In each study a suspension of Form B in the appropriate solvent system was prepared. Approximately 10 mg of Form C was then added to each suspension. The suspensions were then allowed to slurry at the appropriate temperature for a specific period of time. The solvent system, temperature of the solvent system, and period of time over which the suspension was allowed to slurry are set forth below for each study: • (1) Study A: Slurried for 3 days in MEK at room temperature; • (2) Study B: Slurried for 3 days in THF/H2O (50:50) at 40° C.; • (3) Study C: Slurried for 3 days in THF/H2O (50:50) at 60° C.; • (4) Study D: Slurried for 21 days in Methanol at 40° C.; • (5) Study E: Slurried for 21 days in Methanol at 60° C.; • (6) Study F: Slurried for 5 days in Methanol/DCM at 40° C.; and • (7) Study G: Slurried for 21 days in Methanol/DCM at 60° C.
At the end of the specified time period, a sample was removed from each slurry and analyzed by PXRD. […]

crystalline form found by PXRD after slurrying ([1]; approximately 25 mg slurried in approximately 1 ml of methanol): Form B
Structure (SMILES): CCOCCn1nc(C(=O)NS(C)(=O)=O)c2nc(N(C)CC)nc(Nc3cc(C)ccn3)c21 [Form A, N-[1-(2-ethoxyethyl)-5-(N-ethyl-N-methylamino)-7-(4-methylpyridin-2-yl-amino)-1H-pyrazolo[4,3-d]pyrimidine-3-carbonyl]methanesulfonamide]

Structure (SMILES): CCOCCn1nc(C(=O)NS(C)(=O)=O)c2nc(N(C)CC)nc(Nc3cc(C)ccn3)c21 [Form B, N-[1-(2-ethoxyethyl)-5-(N-ethyl-N-methylamino)-7-(4-methylpyridin-2-yl-amino)-1H-pyrazolo[4,3-d]pyrimidine-3-carbonyl]methanesulfonamide]
relative thermodynamic stability of Form A and Form B ([1]; from slurry conversion analysis and DSC analysis, ambient as well as elevated temperatures): more thermodynamically stable than Form A
relative thermodynamic stability of Form B and Form C above the crossover point ([2]; temperatures above the crossover point): more thermodynamically stable than Form C; also recorded: most thermodynamically stable form

Structure (SMILES): CCOCCn1nc(C(=O)NS(C)(=O)=O)c2nc(N(C)CC)nc(Nc3cc(C)ccn3)c21 [Form C, N-[1-(2-ethoxyethyl)-5-(N-ethyl-N-methylamino)-7-(4-methylpyridin-2-yl-amino)-1H-pyrazolo[4,3-d]pyrimidine-3-carbonyl]methanesulfonamide]
relative thermodynamic stability of Form B and Form C below the crossover point ([2]; temperatures below the crossover point (including ambient)): more thermodynamically stable than Form B; also recorded: most thermodynamically stable form
